Test results as given in PubChem BioAssay (NCI).
Where “and” joins values, the source holds several entries; their conditions need not be identical. Equal values may be shown once.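 The compound was tested at five concentrations on cells cultured in 96-well plates, with a 48-hour exposure period. The concentration for 50% growth inhibition is given as GI50. TGI: concentration producing complete growth inhibition.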

Key:
Experiment in all cases: NCI tumour cell line growth inhibition, 48 h
XF 498 CNS = test system: XF 498 CNS
LXFL 529 NSCLC = test system: LXFL 529 NSCLC
HOP-18 NSCLC = test system: HOP-18 NSCLC
DMS 114 small cell lung = test system: DMS 114 small cell lung
RXF-631 renal = test system: RXF-631 renal
P388/ADR leukemia = test system: P388/ADR leukemia
SN12K1 renal = test system: SN12K1 renal
P388 leukemia = test system: P388 leukemia

Row | Structure (SMILES) | TGI (XF 498 CNS) [µM] | TGI (LXFL 529 NSCLC) [µM] | TGI (HOP-18 NSCLC) [µM] | TGI (DMS 114 small cell lung) | TGI (RXF-631 renal) [µM] | GI50 (XF 498 CNS) [µM] | GI50 (DMS 114 small cell lung) [µM] | TGI (P388/ADR leukemia) [µM] | GI50 (SN12K1 renal) [µM] | TGI (SN12K1 renal) [µM] | TGI (P388 leukemia) [µM]
1 | CCN1/C(=C/C(C)=C/c2sc3ccccc3[n+]2CC)Sc2ccccc21 | 0.663 | 1.2 | – | – | – | – | – | – | – | – | –
2 | C=C1C(=O)OC2/C=C(\C)C(O)/C=C\C(C)(O)CC(OC(=O)/C(C)=C/C)C12 (configuration not stated) | > 58.4 | 29.1 | > 100 | > 78.2 µM | > 100 | – | – | – | – | – | –
3 | CC(=O)Oc1c(OC(C)=O)c(-c2ccc(O)c(O)c2)c(O)c(O)c1-c1ccc(O)cc1 | > 100 | – | > 100 | 44 µM and 57.4 µM | – | 46 | 19.1 | 50 | 48.6 | > 100 | –
4 | C/C(=N\Nc1ccc([N+](=O)[O-])cc1)C(=O)N(C)Nc1ccccc1 | > 100 | > 100 | > 100 | > 100 µM | – | – | – | – | – | – | –
5 | O=c1c([Se]c2coc3ccccc3c2=O)coc2ccccc12 | 30.5 | 28.8 | 29.3 | 31.5 µM | – | – | – | – | – | – | –
6 | Cc1ccc2[nH]c3c(C)c4ccncc4c(C)c3c2c1 | 3 | 2.42 | 4.6 | 2.71 µM | – | – | – | 3.62 | – | 2.29 | 3.09
7 | COc1ccc2c(c1)CC[C@@H]1C2CC[C@]2(C)C(=O)NC(=O)CC12 (some centres not stated) | > 100 | > 100 | > 100 | – | – | – | – | – | – | – | –
8 | CCN(CC)CCCNC(=O)Cc1ccccc1Nc1c(Cl)cccc1Cl | 20.8 | 21.3 | – | 27.6 µM | – | – | – | – | – | – | –
9 | CC(=O)c1cccc(NC2C(N)C(NC(=O)N(C)C)(C(C)O)C(C)(O)C2(O)COC(=O)c2c(C)cccc2O)c1 (configuration not stated) | – | 1.01 | – | 0.0855 µM | – | – | – | – | – | – | –
10 | COc1ccc(C2S/C(=C\c3ccc(OC)cc3OC)C(=O)N2NC(=O)Cc2ccccc2)cc1 (configuration not stated) | – | > 100 | > 100 | > 100 µM | – | – | – | – | – | – | –
11 | Cc1nc(-c2nc([N+](=O)[O-])c([N+](=O)[O-])[nH]2)cs1 | > 100 | > 100 | – | > 100 µM | > 100 | – | – | – | – | – | –
12 | COc1cc2c(cc1OC)C(Cl)C(c1cc(OC)c(OC)c(OC)c1)=C2Cl (configuration not stated) | – | 24.6 | 32.3 | 26.2 µM | 38.2 | – | – | – | – | – | –
13 | O=C1c2cc(CCl)sc2C(=O)c2ccsc21 | 3.1 | 0.609 | 0.797 | 0.298 µM | – | – | – | – | – | – | –
14 | CCN(CC)CCNc1ccc(C)c2sc3ccc(O)cc3c(=O)c12 | 2.56 | 2.54 | 5.94 | 2.27 µM | – | – | – | – | – | – | –
